Laboratory results from patent US5977133A, “Pyridone antibiotic with improved safety profile” (priority 1998, dated 1999).
In brackets after ≈: the same amount, converted by molar mass.

Columns and labels:
Assay type in all cases: cell-based
Shigella spp. = experiment: microbe, parasite or virus in culture; settings: read-out: MIC Range
S. pneumoniae (PenS) = experiment: In vitro MIC, agar dilution; settings: Streptococcus pneumoniae
S. aureus (CiproS) = experiment: In vitro MIC, agar dilution; settings: Staphylococcus aureus
P. mirabilis = experiment: In vitro MIC, agar dilution; settings: Proteus mirabilis
E. faecalis (VanS) = experiment: In vitro MIC, agar dilution; settings: Enterococcus faecalis
C. difficile = experiment: In vitro MIC, agar dilution; settings: Clostridioides difficile; C. difficile, 10 isolates; read-out: MIC90
S. aureus (CiproR) = experiment: In vitro MIC, agar dilution; settings: Staphylococcus aureus
S. pneumoniae (CiproR) = experiment: In vitro MIC, agar dilution; settings: Streptococcus pneumoniae, read-out: MIC Range
E. faecium (CiproS) = experiment: In vitro MIC, agar dilution; settings: Enterococcus faecium
N. gonorrhoeae = experiment: In vitro MIC, agar dilution; settings: Neisseria gonorrhoeae
S. pneumoniae (PenR) = experiment: In vitro MIC, agar dilution; settings: Streptococcus pneumoniae
P. aeruginosa (CiproR) = experiment: In vitro MIC, agar dilution; settings: Pseudomonas aeruginosa
Providencia spp. = experiment: In vitro MIC, agar dilution; settings: Providencia spp., 28 isolates
M. pneumoniae = experiment: In vitro MIC, agar dilution; settings: Mycoplasmoides pneumoniae, read-out: MIC Range
S. pyogenes = experiment: In vitro MIC, agar dilution; settings: Streptococcus pyogenes
S. epidermidis (CiproS) = experiment: In vitro MIC, agar dilution; settings: Staphylococcus epidermidis
C. freundii = experiment: In vitro MIC, agar dilution; settings: Citrobacter freundii
H. pylori = experiment: In vitro MIC, agar dilution; settings: Helicobacter pylori
B. fragilis = experiment: In vitro MIC, agar dilution; settings: Bacteroides fragilis
M. catarrhalis = experiment: In vitro MIC, agar dilution; settings: Moraxella catarrhalis
Enterococcus spp. (VanR) = experiment: In vitro MIC, agar dilution; settings: Enterococcus spp. (VanR), 21 isolates
S. epidermidis (CiproR) = experiment: In vitro MIC, agar dilution; settings: Staphylococcus epidermidis
M. avium = experiment: In vitro MIC, agar dilution; settings: Mycobacterium avium, M. avium, 20 isolates
E. faecium (CiproR) = experiment: In vitro MIC, agar dilution; settings: Enterococcus faecium, read-out: MIC Range
Enterobacter spp. = experiment: In vitro MIC, agar dilution
H. influenzae = experiment: In vitro MIC, agar dilution; settings: Haemophilus influenzae
P. aeruginosa (CiproS) = experiment: In vitro MIC, agar dilution; settings: Pseudomonas aeruginosa, P. aeruginosa (CiproS), 24 isolates
Salmonella spp. = experiment: In vitro MIC, agar dilution; settings: 23 isolates
Method in brief: (§1)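 MIC, the lowest compound level without growth versus a drug-free BHI control plate, with faint haze or scattered colonies scored as no growth. About 10^4 CFU was replicator-spotted from 1:100 dilutions, or 1:10 for slow-growing strains, and plates were read after ~20–24 h at 35–37 °C.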

E. coli = experiment: In vitro MIC, agar dilution; settings: Escherichia coli, 25 isolates
Method in brief: as §1

N[C@@H]1[C@H]2CN(c3nc4c(cc3F)c(=O)c(C(=O)O)cn4-c3ccc(F)cc3F)C[C@@H]12 [Trovafloxacin, trovafloxacin]
MIC (Shigella spp.): 0.015 to 0.06 µg/mL (≈ 0.036 to 0.144 µM) | MIC90 (S. pneumoniae (PenS)): 0.5 µg/mL (≈ 1.2 µM) | MIC (S. pneumoniae (PenS); read-out: MIC Range): 0.12 to 0.5 µg/mL (≈ 0.288 to 1.2 µM) | MIC50 (S. pneumoniae (PenS); S. pneumoniae (PenS), 20 isolates, read-out: MIC50): 0.5 µg/mL (≈ 1.2 µM) | MIC50 (S. aureus (CiproS)): 0.03 µg/mL (≈ 0.0721 µM) | MIC90 (S. aureus (CiproS)): 0.03 µg/mL (≈ 0.0721 µM) | MIC (S. aureus (CiproS); S. aureus (CiproS), 21 isolates, read-out: MIC Range): 0.008 to 0.03 µg/mL (≈ 0.0192 to 0.0721 µM) | MIC90 (P. mirabilis): 0.5 µg/mL (≈ 1.2 µM) | MIC (P. mirabilis; read-out: MIC Range): 0.25 to 0.5 µg/mL (≈ 0.6 to 1.2 µM) | MIC50 (P. mirabilis; P. mirabilis, 20 isolates, read-out: MIC50): 0.25 µg/mL (≈ 0.6 µM) | MIC (E. faecalis (VanS); read-out: MIC Range): 0.25 to 1 µg/mL (≈ 0.6 to 2.4 µM) | MIC50 (E. faecalis (VanS); E. faecalis (VanS), 17 isolates, read-out: MIC50): 0.5 µg/mL (≈ 1.2 µM) | MIC90 (E. faecalis (VanS); E. faecalis (VanS), 17 isolates, read-out: MIC90): 1 µg/mL (≈ 2.4 µM) | MIC90 (C. difficile): 2 µg/mL (≈ 4.8 µM) | MIC (S. aureus (CiproR); read-out: MIC Range): 0.25 to 4 µg/mL (≈ 0.6 to 9.61 µM) | MIC50 (S. aureus (CiproR); S. aureus (CiproR), 25 isolates, read-out: MIC50): 2 µg/mL (≈ 4.8 µM) | MIC90 (S. aureus (CiproR); S. aureus (CiproR), 25 isolates, read-out: MIC90): 2 µg/mL (≈ 4.8 µM) | MIC (S. pneumoniae (CiproR)): 0.5 to 1 µg/mL (≈ 1.2 to 2.4 µM) | MIC (E. faecium (CiproS); read-out: MIC Range): 0.25 to 1 µg/mL (≈ 0.6 to 2.4 µM) | MIC50 (E. faecium (CiproS); E. faecium (CiproS), 16 isolates, read-out: MIC50): 0.5 µg/mL (≈ 1.2 µM) | MIC90 (E. faecium (CiproS); E. faecium (CiproS), 16 isolates, read-out: MIC90): 1 µg/mL (≈ 2.4 µM) | MIC90 (N. gonorrhoeae): 0.06 µg/mL (≈ 0.144 µM) | MIC (N. gonorrhoeae; read-out: MIC Range): 0.015 to 0.12 µg/mL (≈ 0.036 to 0.288 µM) | MIC50 (N. gonorrhoeae; N. gonorrhoeae, 12 isolates, read-out: MIC50): 0.015 µg/mL (≈ 0.036 µM) | MIC90 (S. pneumoniae (PenR)): 0.25 µg/mL (≈ 0.6 µM) | MIC (S. pneumoniae (PenR); read-out: MIC Range): 0.06 to 0.25 µg/mL (≈ 0.144 to 0.6 µM) | MIC50 (S. pneumoniae (PenR); S. pneumoniae (PenR), 25 isolates, read-out: MIC50): 0.25 µg/mL (≈ 0.6 µM) | MIC90 (P. aeruginosa (CiproR)): > 128 µg/mL | MIC50 (P. aeruginosa (CiproR); P. aeruginosa (CiproR), 20 isolates, read-out: MIC50): > 128 µg/mL | MIC50 (Providencia spp.; read-out: MIC50): 0.25 µg/mL (≈ 0.6 µM) | MIC90 (Providencia spp.; read-out: MIC90): 2 µg/mL (≈ 4.8 µM) | MIC (Providencia spp.; read-out: MIC Range): 0.03 to 2 µg/mL (≈ 0.0721 to 4.8 µM) | MIC (M. pneumoniae): 0.12 to 0.25 µg/mL (≈ 0.288 to 0.6 µM) | MIC90 (S. pyogenes): 0.25 µg/mL (≈ 0.6 µM) | MIC50 (S. pyogenes; S. pyogenes, 21 isolates, read-out: MIC50): 0.12 µg/mL (≈ 0.288 µM) | MIC (S. pyogenes; S. pyogenes, 21 isolates, read-out: MIC Range): 0.06 to 1 µg/mL (≈ 0.144 to 2.4 µM) | MIC90 (S. epidermidis (CiproS)): 0.06 µg/mL (≈ 0.144 µM) | MIC50 (S. epidermidis (CiproS); S. epidermidis (CiproS), 23 isolates, read-out: MIC50): 0.06 µg/mL (≈ 0.144 µM) | MIC (S. epidermidis (CiproS); S. epidermidis (CiproS), 23 isolates, read-out: MIC Range): 0.015 to 0.06 µg/mL (≈ 0.036 to 0.144 µM) | MIC90 (C. freundii): 0.5 µg/mL (≈ 1.2 µM) | MIC50 (C. freundii; C. freundii, 20 isolates, read-out: MIC50): 0.06 µg/mL (≈ 0.144 µM) | MIC (C. freundii; C. freundii, 20 isolates, read-out: MIC Range): 0.003 to 1 µg/mL (≈ 0.00721 to 2.4 µM) | MIC90 (H. pylori): 0.5 µg/mL (≈ 1.2 µM) | MIC50 (H. pylori; H. pylori, 17 isolates, read-out: MIC50): 0.12 µg/mL (≈ 0.288 µM) | MIC (H. pylori; H. pylori, 17 isolates, read-out: MIC Range): 0.06 to 1 µg/mL (≈ 0.144 to 2.4 µM) | MIC90 (B. fragilis): 0.5 µg/mL (≈ 1.2 µM) | MIC (B. fragilis; read-out: MIC Range): 0.12 to 1 µg/mL (≈ 0.288 to 2.4 µM) | MIC50 (B. fragilis; B. fragilis, 18 isolates, read-out: MIC50): 0.25 µg/mL (≈ 0.6 µM) | MIC50 (M. catarrhalis): 0.03 µg/mL (≈ 0.0721 µM) | MIC90 (M. catarrhalis): 0.06 µg/mL (≈ 0.144 µM) | MIC (M. catarrhalis; M. catarrhalis, 18 isolates, read-out: MIC Range): 0.015 to 0.25 µg/mL (≈ 0.036 to 0.6 µM) | MIC50 (Enterococcus spp. (VanR); read-out: MIC50): 1 µg/mL (≈ 2.4 µM) | MIC90 (Enterococcus spp. (VanR); read-out: MIC90): 1 µg/mL (≈ 2.4 µM) | MIC (Enterococcus spp. (VanR); read-out: MIC Range): 0.06 to 32 µg/mL (≈ 0.144 to 76.9 µM) | MIC (S. epidermidis (CiproR); read-out: MIC Range): 1 to 16 µg/mL (≈ 2.4 to 38.4 µM) | MIC50 (S. epidermidis (CiproR); S. epidermidis (CiproR), 11 isolates, read-out: MIC50): 4 µg/mL (≈ 9.61 µM) | MIC90 (S. epidermidis (CiproR); S. epidermidis (CiproR), 11 isolates, read-out: MIC90): 16 µg/mL (≈ 38.4 µM) | MIC50 (M. avium; read-out: MIC50): 32 µg/mL (≈ 76.9 µM) | MIC90 (M. avium; read-out: MIC90): 64 µg/mL (≈ 154 µM) | MIC (M. avium; read-out: MIC Range): 8 to 128 µg/mL (≈ 19.2 to 307 µM) | MIC (E. faecium (CiproR)): 2 to 32 µg/mL (≈ 4.8 to 76.9 µM) | MIC90 (Enterobacter spp.; Enterobacter): 0.12 µg/mL (≈ 0.288 µM) | MIC50 (Enterobacter spp.; Enterobacter spp., 35 isolates, read-out: MIC50): 0.12 µg/mL (≈ 0.288 µM) | MIC (Enterobacter spp.; Enterobacter spp., 35 isolates, read-out: MIC Range): 0.015 to 0.5 µg/mL (≈ 0.036 to 1.2 µM) | MIC90 (H. influenzae): 0.03 µg/mL (≈ 0.0721 µM) | MIC50 (H. influenzae; H. influenzae, 18 isolates, read-out: MIC50): 0.015 µg/mL (≈ 0.036 µM) | MIC (H. influenzae; H. influenzae, 18 isolates, read-out: MIC Range): 0.008 to 0.06 µg/mL (≈ 0.0192 to 0.144 µM) | MIC50 (P. aeruginosa (CiproS); read-out: MIC50): 0.5 µg/mL (≈ 1.2 µM) | MIC90 (P. aeruginosa (CiproS); read-out: MIC90): 2 µg/mL (≈ 4.8 µM) | MIC (P. aeruginosa (CiproS); read-out: MIC Range): 0.12 to 4 µg/mL (≈ 0.288 to 9.61 µM) | MIC (Salmonella spp.): 0.03 to 1 µg/mL (≈ 0.0721 to 2.4 µM) | MIC50 (Salmonella spp.; read-out: MIC50): 0.06 µg/mL (≈ 0.144 µM) | MIC90 (Salmonella spp.; read-out: MIC90): 0.12 µg/mL (≈ 0.288 µM) | MIC (E. coli): 0.015 to 0.03 µg/mL (≈ 0.036 to 0.0721 µM) | MIC50 (E. coli; read-out: MIC50): 0.03 µg/mL (≈ 0.0721 µM) | MIC90 (E. coli; read-out: MIC90): 0.03 µg/mL (≈ 0.0721 µM)
